Data from patent US8546339B2, “Soothing cosmetic or pharmaceutical composition comprising a peptide which activates HMG-CoA reductase” (ISP Investments Inc., priority 2008, dated 2013).
Where no end group is shown, it is not given here.

Tests used:
[1] = tested on: HMG-CoA reductase; experiment: Expression of HMG-CoA reductase in normal human keratinocytes (immunofluorescence); type: cell-based; conditions: peptide 0.5 ppm (1% of 50 ppm stock), 24 or 48 hours, anti-HMG-CoA reductase antibody, epifluorescence microscopy
Method: The goal of this study is to determine the influence of peptide SEQ ID No. 5 on the expression of HMG-CoA reductase in normal human keratinocytes.
Normal human keratinocytes in culture are treated with a 1% stock solution at 50 ppm of peptide SEQ ID No. 5 for 24 or 48 hours (the medium in the presence of the active ingredient is changed every 24 hours). The cells are then washed and fixed in cold methanol for 4 minutes at 4° C. The cells are incubated in the presence of a polyclonal rabbit antibody specific for HMG-CoA reductase (Millipore, Upstate), and then a secondary antibody coupled with a fluorescent dye. The cells are then examined by epifluorescence microscope (Nikon Eclipse E600 microscope).

[2] = tested on: interleukin-1 alpha (IL-1 alpha); experiment: Ex vivo IL-1 alpha secretion by human skin biopsies (ELISA); type: cell-based; conditions: peptide 0.5 ppm 24 h, vs controls untreated by the peptide
Method: The goal of this study is to determine the ex vivo effect of peptide SEQ ID No. 5 on the production of the IL-1 alpha cellular inflammation mediator by biopsies of human skin cultivated under standard conditions or subjected to stress by UVB radiation or SDS.
5 mm-diameter biopsies of human skin are maintained in culture at the air-liquid interface in the presence of standard culture medium. The samples are treated with a 1% dilution of a solution at 50 ppm of peptide SEQ ID No. 5 for 24 hours, and then irradiated by UVB radiation (200 mJ/cm^2) and put back in culture for 24 hours, or subjected to contact with SDS at 2.5% for 24 hours in the presence of the same concentration of peptide SEQ ID No. 5. Controls untreated by the peptide are carried out under the same conditions. At the end of the experiment, the quantity of interleukin-1 alpha salted out in the culture medium is assayed by the ELISA technique.

Arg-Gly-Lys-Ser-NH2 (RGKS-NH2) [SEQ ID No. 5]
HMG-CoA reductase expression (cytoplasmic fluorescence) [1]: more intense cytoplasmic fluorescence | reduction of IL-1 alpha released in culture medium after SDS stress ([2]; SDS 2.5% for 24 hours with peptide): 58% | reduction of IL-1 alpha released in culture medium after UVB radiation ([2]; UVB 200 mJ/cm^2, 24 h culture): 40%
